Reference: publication PMC5218480 (PLoS ONE, 2017)

Tested on: MV-4-11 cells
Assay: Gene expression microarray analysis (Affymetrix PrimeView) and GSEA
Assay type: cell-based, human
Set-up: RFU PODN (11730768_x_at) / Fold change /veh PODN (11730768_x_at) / RFU LINC00158 (11744669_a_at) / Fold change /veh LINC00158 (11744669_a_at) / RFU DUSP10 (11751237_a_at) / Fold change /veh DUSP10 (11751237_a_at) / RFU ID3 (11757404_x_at) / Fold change /veh ID3 (11757404_x_at) / RFU PLEKHG5 (11737974_s_at) / Fold change /veh PLEKHG5 (11737974_s_at) / RFU LRRC4B (11730491_at) / Fold change /veh LRRC4B (11730491_at) / RFU GIMAP4 (11747438_a_at) / Fold change /veh GIMAP4 (11747438_a_at) / RFU KRT8 (11758183_x_at) / Fold change /veh KRT8 (11758183_x_at) / RFU CNN1 (11734310_a_at) / Fold change /veh CNN1 (11734310_a_at) / RFU VPS37D (11726825_at) / Fold change /veh VPS37D (11726825_at) / RFU C10orf10 (11716522_x_at) / Fold change /veh C10orf10 (11716522_x_at) / RFU KIR2DL2 /// KIR2DL4 /// KIR2DL5A /// KIR2DL5B /// KIR2DS1 /// KIR2DS2 /// KIR2DS3 /// KIR2DS4 /// KIR3DL3 /// KIR3DL3 /// KIR3DS1 (11738374_at) / Fold change /veh KIR2DL2 /// KIR2DL4 /// KIR2DL5A /// KIR2DL5B /// KIR2DS1 /// KIR2DS2 /// KIR2DS3 /// KIR2DS4 /// KIR3DL3 /// KIR3DL3 /// KIR3DS1 (11738374_at) / RFU C1QL1 (11718748_at) / Fold change /veh C1QL1 (11718748_at) / RFU TMPRSS4 (11747572_a_at) / Fold change /veh TMPRSS4 (11747572_a_at) / RFU HAMP (11756126_x_at) / Fold change /veh HAMP (11756126_x_at) / RFU RNFT2 (11725882_a_at) / Fold change /veh RNFT2 (11725882_a_at) / RFU NR4A2 (11747474_a_at) / Fold change /veh NR4A2 (11747474_a_at) / RFU ABCC12 (11746883_a_at) / Fold change /veh ABCC12 (11746883_a_at) / RFU TMEM136 (11760407_x_at) / Fold change /veh TMEM136 (11760407_x_at) / RFU CLDN22 /// WWC2 (11732394_at) / Fold change /veh CLDN22 /// WWC2 (11732394_at) / RFU HLA-DPB1 (11760878_x_at) / Fold change /veh HLA-DPB1 (11760878_x_at) / RFU SPINT1 (11716480_a_at) / Fold change /veh SPINT1 (11716480_a_at) / RFU GAP43 (11754022_s_at) / Fold change /veh GAP43 (11754022_s_at) / RFU A4GNT (11735810_at) / Fold change /veh A4GNT (11735810_at) / RFU PRB3 (11715151_x_at) / Fold change /veh PRB3 (11715151_x_at) / RFU TUBB4B (11761932_at) / Fold change /veh TUBB4B (11761932_at) / RFU CAPN14 (11732068_a_at) / Fold change /veh CAPN14 (11732068_a_at) / RFU TMCC2 (11721928_a_at) / Fold change /veh TMCC2 (11721928_a_at) / RFU IRGQ (11745062_a_at) / Fold change /veh IRGQ (11745062_a_at) / RFU FAM174B (11720279_a_at) / Fold change /veh FAM174B (11720279_a_at) / RFU TMPRSS4 (11748680_a_at) / Fold change /veh TMPRSS4 (11748680_a_at) / RFU FAM212B (11763350_a_at) / Fold change /veh FAM212B (11763350_a_at) / RFU PLEKHG5 (11743358_a_at) / Fold change /veh PLEKHG5 (11743358_a_at) / RFU ZSCAN30 (11745921_a_at) / Fold change /veh ZSCAN30 (11745921_a_at) / RFU CMKLR1 (11741424_a_at) / Fold change /veh CMKLR1 (11741424_a_at) / RFU LOC101060620 /// MAPK8IP1 (11723275_at) / Fold change /veh LOC101060620 /// MAPK8IP1 (11723275_at) / RFU SPTSSB (11747773_x_at) / Fold change /veh SPTSSB (11747773_x_at) / RFU PRSS12 (11739890_at) / Fold change /veh PRSS12 (11739890_at) / RFU BIN1 (11741810_x_at) / Fold change /veh BIN1 (11741810_x_at) / RFU WNT11 (11732464_a_at) / Fold change /veh WNT11 (11732464_a_at) / RFU C10orf10 (11716521_a_at) / Fold change /veh C10orf10 (11716521_a_at) / RFU C5orf56 (11738089_at) / Fold change /veh C5orf56 (11738089_at) / RFU CYB561 (11721691_x_at) / Fold change /veh CYB561 (11721691_x_at) / RFU ANKRD19P (11752326_a_at) / Fold change /veh ANKRD19P (11752326_a_at) / RFU OR2T12 /// OR2T33 /// OR2T8 (11738714_s_at) / Fold change /veh OR2T12 /// OR2T33 /// OR2T8 (11738714_s_at) / RFU VCAN (11748164_a_at) / Fold change /veh VCAN (11748164_a_at) / RFU JSRP1 (11732532_at) / Fold change /veh JSRP1 (11732532_at) / RFU KRTAP10-11 (11738290_x_at) / Fold change /veh KRTAP10-11 (11738290_x_at) / RFU MYO3A (11730013_a_at) / Fold change /veh MYO3A (11730013_a_at) / RFU EBF3 (11725865_a_at) / Fold change /veh EBF3 (11725865_a_at) / RFU CAMK2N1 (11719241_x_at) / Fold change /veh CAMK2N1 (11719241_x_at) / RFU C5orf56 (11738088_a_at) / Fold change /veh C5orf56 (11738088_a_at) / RFU OLFML3 (11715873_a_at) / Fold change /veh OLFML3 (11715873_a_at) / RFU LOC100653217 /// NTM (11731650_a_at) / Fold change /veh LOC100653217 /// NTM (11731650_a_at) / RFU MAPK11 (11762145_a_at) / Fold change /veh MAPK11 (11762145_a_at) / RFU FIZ1 (11724087_x_at) / Fold change /veh FIZ1 (11724087_x_at) / RFU OASL (11726364_x_at) / Fold change /veh OASL (11726364_x_at) / RFU SOX15 (11748057_x_at) / Fold change /veh SOX15 (11748057_x_at) / RFU CD79A (11719716_a_at) / Fold change /veh CD79A (11719716_a_at) / RFU HIST1H1D (11736915_at) / Fold change /veh HIST1H1D (11736915_at) / RFU CASKIN2 (11723855_a_at) / Fold change /veh CASKIN2 (11723855_a_at) / RFU LOC730098 (11760151_x_at) / Fold change /veh LOC730098 (11760151_x_at) / RFU OR4N2 (11742367_at) / Fold change /veh OR4N2 (11742367_at) / RFU PRRT2 (11749266_a_at) / Fold change /veh PRRT2 (11749266_a_at) / RFU SNX32 (11753110_a_at) / Fold change /veh SNX32 (11753110_a_at) / RFU CDHR5 (11726645_a_at) / Fold change /veh CDHR5 (11726645_a_at) / RFU RCAN1 (11760418_a_at) / Fold change /veh RCAN1 (11760418_a_at) / RFU FAM167A (11723789_a_at) / Fold change /veh FAM167A (11723789_a_at) / RFU FAM26E (11764081_at) / Fold change /veh FAM26E (11764081_at) / RFU ISYNA1 (11749810_s_at) / Fold change /veh ISYNA1 (11749810_s_at) / RFU ACY1 (11761880_at) / Fold change /veh ACY1 (11761880_at) / RFU 11764098_at / Fold change /veh 11764098_at / RFU SAMD14 (11745864_x_at) / Fold change /veh SAMD14 (11745864_x_at) / RFU NPB (11741838_a_at) / Fold change /veh NPB (11741838_a_at) / RFU TMPRSS6 (11731388_a_at) / Fold change /veh TMPRSS6 (11731388_a_at) / RFU KRTAP10-2 (11738614_at) / Fold change /veh KRTAP10-2 (11738614_at) / RFU ARHGAP8 /// PRR5-ARHGAP8 (11727945_x_at) / Fold change /veh ARHGAP8 /// PRR5-ARHGAP8 (11727945_x_at) / RFU KRTAP5-7 /// NADSYN1 (11734609_at) / Fold change /veh KRTAP5-7 /// NADSYN1 (11734609_at) / RFU RASL12 (11751679_a_at) / Fold change /veh RASL12 (11751679_a_at) / RFU CDKN2B (11736163_a_at) / Fold change /veh CDKN2B (11736163_a_at) / RFU PRF1 (11729649_at) / Fold change /veh PRF1 (11729649_at) / RFU, ZNF638 /// ZNF638-IT1 / Fold change vs veh, ZNF638 /// ZNF638-IT1 / RFU, PANK3 / Fold change vs veh, PANK3 / RFU, SH3YL1 / Fold change vs veh, SH3YL1 / RFU, ZEB2 / Fold change vs veh, ZEB2 / RFU, NRIP1 / Fold change vs veh, NRIP1 / RFU, PTTG1IP / Fold change vs veh, PTTG1IP / RFU, CAPN2 / Fold change vs veh, CAPN2 / RFU, MED14 / Fold change vs veh, MED14 / RFU, SNORA58 / Fold change vs veh, SNORA58 / RFU, C1orf63 / Fold change vs veh, C1orf63 / RFU, LRRFIP1 / Fold change vs veh, LRRFIP1 / RFU, NDUFAF7 / Fold change vs veh, NDUFAF7 / RFU, SLC12A2 / Fold change vs veh, SLC12A2 / RFU, IBTK / Fold change vs veh, IBTK / RFU, ESF1 / Fold change vs veh, ESF1 / Fold change vs veh, TMEM50B / RFU, TAOK1 / Fold change vs veh, TAOK1 / RFU, ACBD3 / Fold change vs veh, ACBD3 / RFU, TMA16 / Fold change vs veh, TMA16 / RFU, RWDD3 / Fold change vs veh, RWDD3 / RFU, BCAT1 / Fold change vs veh, BCAT1 / RFU, EDEM3 / Fold change vs veh, EDEM3 / RFU, TMEM33 / Fold change vs veh, TMEM33 / RFU, WDR75 / Fold change vs veh, WDR75 / RFU, AHCTF1 / Fold change vs veh, AHCTF1 / RFU, TFRC / Fold change vs veh, TFRC / RFU, ZDHHC17 / Fold change vs veh, ZDHHC17 / RFU, NOM1 / Fold change vs veh, NOM1 / RFU, ARL8B / Fold change vs veh, ARL8B / RFU, ZBTB11 / Fold change vs veh, ZBTB11 / RFU, TAMM41 / Fold change vs veh, TAMM41 / RFU, KIAA1704 /// LOC100996395 / Fold change vs veh, KIAA1704 /// LOC100996395 / RFU, ING1 / Fold change vs veh, ING1 / RFU, TRMT61B / Fold change vs veh, TRMT61B / RFU, FUBP3 / Fold change vs veh, FUBP3 / RFU, TP53 / Fold change vs veh, TP53 / RFU, TNKS2 / Fold change vs veh, TNKS2 / RFU, ZFP14 / Fold change vs veh, ZFP14 / RFU, ACTR2 / Fold change vs veh, ACTR2 / RFU, PPP3R1 / Fold change vs veh, PPP3R1 / RFU, PIK3R1 / Fold change vs veh, PIK3R1 / RFU, HNRNPA1 / Fold change vs veh, HNRNPA1 / RFU, RNF170 / Fold change vs veh, RNF170 / RFU, ZNF28 / Fold change vs veh, ZNF28 / RFU, RNGTT / Fold change vs veh, RNGTT / RFU, OGT / Fold change vs veh, OGT / RFU, BRD1 / Fold change vs veh, BRD1 / RFU, MARS / Fold change vs veh, MARS / RFU, ZNF655 / Fold change vs veh, ZNF655 / RFU, FAHD1 / Fold change vs veh, FAHD1 / RFU, BDP1 / Fold change vs veh, BDP1 / RFU, LRRCC1 / Fold change vs veh, LRRCC1 / RFU, ARID1A / Fold change vs veh, ARID1A / RFU, ZNF146 / Fold change vs veh, ZNF146 / RFU, ZNF330 / Fold change vs veh, ZNF330 / RFU, GPN3 / Fold change vs veh, GPN3 / RFU, C9orf123 / Fold change vs veh, C9orf123 / RFU, N4BP2L2 / Fold change vs veh, N4BP2L2 / RFU, ARFIP1 / Fold change vs veh, ARFIP1 / RFU, FAM179B / Fold change vs veh, FAM179B / RFU, BCL10 / Fold change vs veh, BCL10 / RFU, UHRF1BP1L / Fold change vs veh, UHRF1BP1L / RFU, BET1 / Fold change vs veh, BET1 / RFU, CNOT2 / Fold change vs veh, CNOT2 / RFU, ZNF268 / Fold change vs veh, ZNF268 / Fold change vs veh, ZNF507 / RFU, DGCR2 / Fold change vs veh, DGCR2 / RFU, WDSUB1 / Fold change vs veh, WDSUB1 / Fold change vs veh, HSP90B1 /// MIR3652 / RFU, ADSS / Fold change vs veh, ADSS / RFU, GK / Fold change vs veh, GK / RFU, ZNF148 / Fold change vs veh, ZNF148 / RFU, TAF9 / Fold change vs veh, TAF9 / RFU, SLC1A5 / Fold change vs veh, SLC1A5 / RFU, SLMO2 / Fold change vs veh, SLMO2 / RFU, ABCC4 / Fold change vs veh, ABCC4 / RFU, LOC101060439 /// RAP1B / Fold change vs veh, LOC101060439 /// RAP1B / RFU, RFX7 / Fold change vs veh, RFX7 / RFU, GTPBP10 / Fold change vs veh, GTPBP10 / RFU, CNEP1R1 / Fold change vs veh, CNEP1R1 / RFU, BIVM-ERCC5 /// ERCC5 / Fold change vs veh, BIVM-ERCC5 /// ERCC5 / RFU, ILF3 / Fold change vs veh, ILF3 / RFU 11762660_at / Fold change /veh 11762660_at / RFU VCAN (11757783_s_at) / Fold change /veh VCAN (11757783_s_at) / RFU DDX43 (11728927_at) / Fold change /veh DDX43 (11728927_at) / RFU KRT8 (11758188_x_at) / Fold change /veh KRT8 (11758188_x_at) / RFU NKD1 (11759106_at) / Fold change /veh NKD1 (11759106_at) / RFU SRD5A1 (11742802_a_at) / Fold change /veh SRD5A1 (11742802_a_at) / RFU TPSAB1 /// TPSB2 (11721975_s_at) / Fold change /veh TPSAB1 /// TPSB2 (11721975_s_at) / RFU GSTM3 (11746129_a_at) / Fold change /veh GSTM3 (11746129_a_at) / RFU IL23R (11737362_x_at) / Fold change /veh IL23R (11737362_x_at) / RFU TMEM51 (11727254_a_at) / Fold change /veh TMEM51 (11727254_a_at) / RFU PIWIL2 (11732686_x_at) / Fold change /veh PIWIL2 (11732686_x_at) / RFU ORM1 (11744905_x_at) / Fold change /veh ORM1 (11744905_x_at) / RFU CCDC152 (11743942_at) / Fold change /veh CCDC152 (11743942_at) / RFU ECM1 (11717891_a_at) / Fold change /veh ECM1 (11717891_a_at) / RFU IL23R (11748794_a_at) / Fold change /veh IL23R (11748794_a_at) / RFU TNFAIP8L3 (11732012_x_at) / Fold change /veh TNFAIP8L3 (11732012_x_at) / RFU MBOAT4 (11741988_at) / Fold change /veh MBOAT4 (11741988_at) / RFU 11764193_at / Fold change /veh 11764193_at / RFU TMEM53 (11763286_at) / Fold change /veh TMEM53 (11763286_at) / RFU MAGEB2 (11727129_at) / Fold change /veh MAGEB2 (11727129_at) / RFU TMEM200A (11744735_a_at) / Fold change /veh TMEM200A (11744735_a_at) / RFU CCDC152 (11751479_a_at) / Fold change /veh CCDC152 (11751479_a_at) / RFU FAM211A (11726209_a_at) / Fold change /veh FAM211A (11726209_a_at) / RFU RGS16 (11746705_a_at) / Fold change /veh RGS16 (11746705_a_at) / RFU VCAN (11755009_s_at) / Fold change /veh VCAN (11755009_s_at) / RFU RHOB (11743442_s_at) / Fold change /veh RHOB (11743442_s_at) / RFU RGS16 (11720943_a_at) / Fold change /veh RGS16 (11720943_a_at) / RFU RGS16 (11720944_at) / Fold change /veh RGS16 (11720944_at) / RFU, VPS4B / Fold change vs veh, VPS4B / RFU, CREB1 / Fold change vs veh, CREB1 / RFU, DNAJC13 / Fold change vs veh, DNAJC13 / RFU, GNAQ / Fold change vs veh, GNAQ / RFU, CDK5R1 / Fold change vs veh, CDK5R1 / RFU, ZRANB3 / Fold change vs veh, ZRANB3 / RFU, CUL4A / Fold change vs veh, CUL4A / RFU, CCNY / Fold change vs veh, CCNY / RFU, UFL1 / Fold change vs veh, UFL1 / RFU, COG3 / Fold change vs veh, COG3 / RFU, DIAPH2 / Fold change vs veh, DIAPH2 / RFU, SKA2 / Fold change vs veh, SKA2 / RFU, AFF3 / Fold change vs veh, AFF3 / RFU, LMF1 / Fold change vs veh, LMF1 / RFU, IPO11 / Fold change vs veh, IPO11 / RFU, DFFB / Fold change vs veh, DFFB / RFU, FOXP1 / Fold change vs veh, FOXP1 / RFU, CARD8 / Fold change vs veh, CARD8 / RFU, STRN3 / Fold change vs veh, STRN3 / RFU, ADK / Fold change vs veh, ADK / RFU, RASSF2 / Fold change vs veh, RASSF2 / RFU, WIPF1 / Fold change vs veh, WIPF1 / RFU, LARP1B / Fold change vs veh, LARP1B / RFU, RASA1 / Fold change vs veh, RASA1 / RFU, RB1 / Fold change vs veh, RB1 / RFU, PPFIA1 / Fold change vs veh, PPFIA1 / RFU, MAT2A / Fold change vs veh, MAT2A / RFU, CCT5 / Fold change vs veh, CCT5 / RFU, WDR92 / Fold change vs veh, WDR92 / RFU, CUX1 / Fold change vs veh, CUX1 / RFU, TTC7A / Fold change vs veh, TTC7A / RFU, TMEM135 / Fold change vs veh, TMEM135 / RFU, DEPTOR / Fold change vs veh, DEPTOR / RFU, CPM / Fold change vs veh, CPM / RFU, DNAJB6 / Fold change vs veh, DNAJB6 / RFU, CACNA2D3 / Fold change vs veh, CACNA2D3 / RFU, DTX4 / Fold change vs veh, DTX4 / RFU, TFCP2 / Fold change vs veh, TFCP2 / RFU, GMCL1 /// GMCL1P1 / Fold change vs veh, GMCL1 /// GMCL1P1 / RFU, AEBP2 / Fold change vs veh, AEBP2 / RFU, SNHG1 /// SNORD22 /// SNORD25 /// SNORD26 /// SNORD27 /// SNORD28 /// SNORD29 /// SNORD31 / Fold change vs veh, SNHG1 /// SNORD22 /// SNORD25 /// SNORD26 /// SNORD27 /// SNORD28 /// SNORD29 /// SNORD31 / Fold change (Aza/veh), C12orf56 (ProbeSet 11735607_a_at) / Fold change (ACY-1035/veh), C12orf56 (ProbeSet 11735607_a_at) / Fold change (Aza/veh), FGFR1OP (ProbeSet 11751329_s_at) / Fold change (ACY-1035/veh), FGFR1OP (ProbeSet 11751329_s_at) / Fold change (Aza/veh), VPS36 (ProbeSet 11739960_a_at) / Fold change (ACY-1035/veh), VPS36 (ProbeSet 11739960_a_at) / RFU SYPL1 (11715823_x_at) / Fold change /veh SYPL1 (11715823_x_at) / RFU IGFBP7 (11715501_s_at) / Fold change /veh IGFBP7 (11715501_s_at) / RFU REEP3 (11722064_at) / Fold change /veh REEP3 (11722064_at) / RFU IGLL1 (11728026_x_at) / Fold change /veh IGLL1 (11728026_x_at): dose or concentration left out as unconfirmed
Conditions: ProbeSet 11727545_at; LIST B

SMILES: Nc1ncn([C@@H]2O[C@H](CO)[C@@H](O)[C@H]2O)c(=O)n1 [azacitidine]
- RFU, PANK3: 82.98 RFU
